Laboratory results published in patent publication US12577232B2, “N-heterocycle substituted tryptamine derivatives and methods of using” (ENVERIC B[…] INC., priority 2024, dated 2026).
Values joined by “and” are separate entries in the source; they are usually repeats but may differ in a detail not shown here. Equal values may be shown once.

Key:
5-HT2A receptor = biological target: T1, 5-HT2A receptor (Homo sapiens, UniProt P28223); assay: 5-HT2A receptor radioligand competition assay (SPA, [3H]ketanserin); format: binding; settings: 1 nM [3H]ketanserin; membranes containing 5-HT2A; read-out: 5-HT2A, Ki
T1 construct: purchased PerkinElmer ES-313-M400UA
T1 sequence (P28223 whole entry): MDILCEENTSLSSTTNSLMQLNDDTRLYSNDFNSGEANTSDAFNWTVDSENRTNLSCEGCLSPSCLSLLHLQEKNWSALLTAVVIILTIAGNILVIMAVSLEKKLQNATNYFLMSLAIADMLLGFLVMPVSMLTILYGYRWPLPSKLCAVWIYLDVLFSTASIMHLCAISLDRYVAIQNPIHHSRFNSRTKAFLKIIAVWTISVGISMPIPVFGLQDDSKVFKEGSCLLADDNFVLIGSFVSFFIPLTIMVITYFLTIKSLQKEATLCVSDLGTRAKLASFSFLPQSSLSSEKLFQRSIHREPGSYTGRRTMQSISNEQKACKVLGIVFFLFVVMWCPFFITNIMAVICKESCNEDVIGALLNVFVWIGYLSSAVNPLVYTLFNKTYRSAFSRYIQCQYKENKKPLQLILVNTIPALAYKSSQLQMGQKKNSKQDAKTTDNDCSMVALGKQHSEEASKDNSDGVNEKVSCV
Description: Competition assays were performed as for 5-HT1A assays with the following differences. […] Determination of non-specific binding was carried out in the presence of […] of spiperone (S7395-250MG, Sigma-Aldrich). Equilibrium binding constant for ketanserin (Kd) was determined from saturation binding curves using the ‘one-site saturation binding analysis’ method in GraphPad PRISM software (Version 9.2.0).

[1] = system: human model (NT2) neurons; assay: Neuroplastogenicity (neurite outgrowth) assay in NT2 neurons; format: cell-based; design: key: a positive (+) designation indicating strong evidence of enhanced neurite outgrowth in drug-treated NT2 cells compared to vehicle-treated cells; a negative (−) designation indicating weak or no evidence of enhanced neurite outgrowth in drug-treated NT2 cells compared to vehicle-treated cells; settings: 1 or 10 μM, 48 h, visual inspection vs vehicle (0.1% DMSO)
From the text: Classic psychedelics such as psilocybin and DMT show potential to treat anxiety and depression, and it has been theorized that such long-term improvements arise because these drugs rapidly and lastingly stimulate neuroplasticity (Calder and Hasler, 2023, Neuropsychopharmacol. 48:104-112). Thus, it was of interest to determine the potential of new compounds as neuroplastogens. Herein, we assess the capacity of various compounds to enhance neurite outgrowth in human model (NT2) neurons.
Human NT2/D1 precursor cells were purchased from the American Type Culture Collection (ATCC, Manassas, VA, USA). Neuronal differentiation was carried out as previously described (Roloff et al., 2015, PloS ONE 10:e0118536) with minor modifications. Firstly, NT2/D1 cells were seeded in T-25 suspension culture flasks (REF #690190, Greiner bio-one, Germany). Each flask contains a minimum of 5×10^6 cells in 10 ml of DMEM/F12 supplemented with 10% fetal bovine serum (FBS), 1% penicillin and streptomycin and 10 μM retinoic acid (RA) medium to start neuronal differentiation. The cells were cultured for 3 days in free floating medium. At the end of the incubation cells were trypsinized and collected by centrifugation, mechanically dispersed, and counted. Counted cells were seeded along Poly D-Lysine (PDL) coated cover slips (12 mm; diameter round, Fisher Scientific; GG-12-PDL) containing a minimum of 0.1×10^5 cells in culture medium without RA. The next day culture medium was replaced with RA medium containing 2% of FBS. These cells cultured for 5 days and two days later, RA medium was changed.
After cells had successfully attached and established along coverslips, the RA medium was replaced with new medium containing 2% FBS and one of the following: (1) test compound (1 or 10 μM), (2) RhoK (ROCK) inhibitor Y-27632 (1 μM) as a positive control (Dihydrochloride; Sigma-Aldrich) (Roloff et al., 2015, PloS ONE 10:e0118536); (3) DMT (1 or 10 μM) as a positive control (Calder and Hasler, 2023, Neuropsychopharmacol. 48:104-112), or (4) vehicle (0.1% DMSO) as a negative control. These cells were incubated for 48 hours under standard conditions (370C, 5% CO2). The cells cultured along coverslips were collected after 48 hours of treatment. The coverslips washed with calcium chloride and magnesium chloride-free phosphate buffered saline (PBS) pH 7.4 (Gibco, #70011-044) and fixed in paraformaldehyde (PFA) 4% in PBS (#J61899, thermoscientific) for 15 min at room temperature (RT) and washed three times with 0.01% of Triton-X100 in PBS (PBST) to remove remaining PFA and to permeabilize the cells. Non-specific binding sites were blocked with 5% of Bovine Serum Albumin (BSA) solution (#9048-46-8, Millipore) in PBST for 60 minutes at RT. Rabbit monoclonal antibody β-III-tubulin (1:5,000, ab52623, Abcam) was applied overnight (O/N) at 4° C. Next day cells are washed three times in PBST, neurons were incubated with secondary antibody Donkey anti-rabbit IgG(H+L) Alexa Fluor™ Plus488 (1:5000 #A32790, Invitrogen) for 1 hour at RT. These coverslips were mounted on Gluoromount-G™, with 4′6-diamidino-2′henylindoldihydrochloride (DAPI) (#E141818, Invitrogen). The immunofluorescence images were analyzed using an Olympus VS110 slide scanner microscope.
B-III-Tubulin immunofluorescence was quantified using ImageJ. Briefly, Corrected Total Cell Fluorescence (CTCF) was acquired for at least ˜8-10 representative cells, where CTCF=Integrated Density−[Area of selected cell*Mean Fluorescence of background]. The CTCF values, referred to herein as ‘signal intensities’, were used to calculate overall means±SD for each treatment. One-Way ANOVA was used to compare treatments. Further, the mean of each treatment was compared with the mean of the control treatment (RA-differentiated cells treated with vehicle, 0.1% DMSO) using Dunnett's multiple comparison procedure. […]

C57BL/6 mice = assay: Mouse Head Twitch Response (HTR) assay to assess hallucinogenic potential; format: in vivo; settings: 3 mg/kg i.p.; for mean HTR: 0-15 min interval (preliminary screening); for HTR compared with the HTR response for 5-Br-DMT (one-way ANOVA, Dunnett): alpha 0.05
Description: All experiments were approved by the University of Calgary Animal Care and Use Committee in accordance with Canadian Council on Animal Care guidelines. C57BL/6-Elite mixed sex mice were obtained from Charles River (8 weeks old). Until the first experiment, mice were group-housed, then single-housed on a 12:12 h light/dark schedule (lights on at 07:00 hours) with ad libitum access to food and water. Before any behavioral screening, mice were handled and exposed to the testing chamber for at least 5 min each day for three successive days and habituated to the experimental room 1 h before testing. The testing chamber was cleaned with a 70% ethanol solution between experiments to eliminate odor from other mice. Drug compounds (100 mM in DMSO) were diluted in sterile excipient (10% EtOH/15% PEG400 in ddH2O) to 3 mg/kg (preliminary screening) or 0.5, 2, 4, 7, and 10 mg/kg (dose-curve analysis) and administered using intraperitoneal (i.p.) drug injections. […] HTR was analyzed during the 0-to-15-minute window following drug administration. […] Mean HTR between 10 and 5 signifies reduced hallucinogenic potential relative to positive controls.

Row | Molecule | Ki (5-HT2A receptor) | Evidence of neurite outgrowth: Yes (+) or No (−) [1] | mean HTR (C57BL/6 mice) | HTR compared with the HTR response for 5-Br-DMT (one-way ANOVA, Dunnett) (C57BL/6 mice)
1 | N[C@@H](Cc1c[nH]c2ccccc12)C(=O)O [tryptophan, reference compound] | > 1000 µM |  |  | 
2 | CN(C)CCc1c[nH]c2cc(F)cc(N3CCCC3)c12 [Compound (XIII)] | 2.96 µM | + | 7.75 | not statistically significantly higher
3 | CN(C)CCc1c[nH]c2cc(N3CCOCC3)cc(F)c12 [Compound (XVI)] | 6.2 µM and 6.19 µM |  | 6.75 | not statistically significantly higher
4 | CN(C)CCc1c[nH]c2cc(N3CCCC3)ccc12 [Compound (X)] | 7.8 µM | + | 7.25 | not statistically significantly higher
5 | CN(C)CCc1c[nH]c2cc(Cl)cc(N3CCOCC3)c12 [Compound (XXII)] |  |  | 6.5 | not statistically significantly higher
6 | C[C@@H](N)[C@H]1CC[C@H](C(=O)Nc2ccncc2)CC1 [RhoK, reference compound] |  | + |  | 
7 | CN(C)CCc1c[nH]c2cc(N3CCCC3)c(F)cc12 [Compound (XIV)] | 3.1 µM and 3.06 µM | + | 9.0 | not statistically significantly higher
8 | CN(C)CCc1c[nH]c2ccc(N3CCC3)cc12 [Compound (VI)] | 12 µM | + | 11.5 | 
9 | CN(CCc1c[nH]c2cc(N3CCOCC3)c(F)cc12)Cc1ccccc1 [Compound (XX)] | 25.6 µM | + | 7.25 | not statistically significantly higher
10 | CCN(CC)CCc1c[nH]c2cc(F)ccc12 [Compound 6-F-DET, 6-fluoro-diethyltryptamine, reference compound] | 0.35 µM | + |  | 
11 | COc1ccc2c3c([nH]c2c1)CCN(C)CC3 [TBG, tabernanthalog, reference compound] | 0.8 µM | + |  | 
12 | CN(C)CCc1c[nH]c2cc(Cl)cc(N3CCN(C)CC3)c12 [Compound (XXIII)] | 12.5 µM | + | 7.25 | not statistically significantly higher
13 | 5-bromo-dimethyltryptamine [Compound 5-Br-DMT, reference compound] |  | + |  | 
14 | CN(C)CCc1c[nH]c2cc(N3CCN(C)CC3)cc(F)c12 [Compound (XXI)] |  |  | 9.25 | not statistically significantly higher
15 | CC(=O)c1[nH]c2cc(F)c(N3CCOCC3)cc2c1CCN(C)C [Compound (IX)] | 14.2 µM | − | 9.25 | not statistically significantly higher
16 | CN(C)CCc1c[nH]c2cc(F)cc(N3CCN(C)CC3)c12 [Compound (XIX)] |  |  | 11.5 | 
17 | CN(C)CCc1c[nH]c2cc(F)c(N3CCN(c4ccccc4)CC3)cc12 [Compound (XXVI)] |  |  | 8.25 | not statistically significantly higher
18 | CN(C)CCc1c[nH]c2cc(F)c(N3CCN(C)CC3)cc12 [Compound (XXV)] |  | − | 8.5 | not statistically significantly higher
19 | COc1ccc2[nH]cc(CCN(C)C)c2c1 [Compound 5-MeO-DMT, 5-methoxy-dimethyltryptamine, reference compound] |  | + |  | 
